Reference: patent US7138361B2, “Herbicidal heterocycles” (E. I. du Pont de Nemours and Company, priority 2000, dated 2006)

Columns and labels:
Assay type in all cases: in vivo
[1] = system: duck salad (Heteranthera limosa); assay: Test C flooded paddy test; settings: for Ducksalad plant response rating: Flooded Paddy, scale 0 to 100, 0 no effect, 100 complete control; for Plant response rating, Ducksalad: flooded paddy test, scale 0 to 100 (0 no effect, 100 complete control)
Procedure, shortened: (§1)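 Plants were grown to the 2-leaf stage under flooded paddy conditions and treated. They were then kept in a greenhouse for 12 to 14 days and visually rated against untreated controls on a 0–100 scale, where 0 is no effect and 100 is complete control.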

[2] = system: rice (Oryza saliva); assay: Test C flooded paddy test; settings: for Rice plant response rating: Flooded Paddy, scale 0 to 100, 0 no effect, 100 complete control; for Plant response rating, Rice: flooded paddy test, scale 0 to 100 (0 no effect, 100 complete control)
Procedure, shortened: as §1

[3] = system: smallflower flatsedge (Cyperus difformis); assay: Test C flooded paddy test; settings: for Flatsedge plant response rating: Flooded Paddy, scale 0 to 100, 0 no effect, 100 complete control; for Plant response rating, Flatsedge: flooded paddy test, scale 0 to 100 (0 no effect, 100 complete control)
Procedure, shortened: as §1

[4] = system: barnyardgrass (Echinochloa crus-galli); assay: Test C flooded paddy test; settings: for Barnyardgrass plant response rating: Flooded Paddy, scale 0 to 100, 0 no effect, 100 complete control; for Plant response rating, Barnyardgrass: flooded paddy test, scale 0 to 100 (0 no effect, 100 complete control)
Procedure, shortened: as §1

[5] = system: Nightshade; assay: Test C preemergence; settings: Rate 500 g/ha, visual evaluation after 12 to 14 days
[6] = system: goosegrass (Eleusine indica); assay: Test C preemergence
Procedure, shortened: (§2)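 Pre- and postemergence treatments used a non-phytotoxic solvent/surfactant formulation; post-treated plants measured 2 to 18 cm. Greenhouse hold 12–14 d; % control estimated visually relative to controls.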

[7] = system: yellow nutsedge (Cyperus esculentus); assay: Test C preemergence
Procedure, shortened: as §2

[8] = system: pigweed (Amaranthus retroflexus); assay: Test C preemergence
Procedure, shortened: as §2

[9] = system: Sunflower; assay: Test C preemergence; settings: Rate 125 g/ha; scale 0 to 100, 0 no effect, 100 complete control
[10] = system: velvetleaf (Abutilon theophrasti); assay: Test C preemergence
Procedure, shortened: as §2

[11] = system: soybean (Glycine max); assay: Test C preemergence
Procedure, shortened: as §2

[12] = system: corn (Zea mays); assay: Test C preemergence
Procedure, shortened: as §2

[13] = system: kochia (Kochia scoparia); assay: Test C preemergence
Procedure, shortened: as §2

[14] = system: common ragweed (Ambrosia elatior); assay: Test C preemergence
Procedure, shortened: as §2

[15] = system: giant foxtail (Setaria faberii); assay: Test C preemergence
Procedure, shortened: as §2

[16] = system: crabgrass (Digitaria sanguinalis); assay: Test C preemergence
Procedure, shortened: as §2

[17] = system: woolly cupgrass (Eriochloa villosa); assay: Test C preemergence
Procedure, shortened: as §2

[18] = system: Surinam grass (Brachiaria decumbens); assay: Test C preemergence
Procedure, shortened: as §2

[19] = system: Nightshade; assay: Test C preemergence
[20] = system: bermudagrass (Cynodon dactylon); assay: Test C preemergence
Procedure, shortened: as §2

[21] = system: cocklebur (Xanthium strumarium); assay: Test C preemergence; settings: preemergence
Procedure, shortened: as §2

[22] = system: morningglory (Ipomoea hederacea); assay: Test C preemergence
Procedure, shortened: as §2

[23] = system: johnsongrass (Sorghum halepense); assay: Test C preemergence
Procedure, shortened: as §2

[24] = Rate 125 g/ha, scale 0 to 100, 0 no effect, 100 complete control
[25] = preemergence, Rate 62 g/ha, scale 0 to 100
[26] = preemergence, Rate 500 g/ha, visual evaluation after 12 to 14 days
[27] = preemergence, Rate 250 g/ha, scale 0 to 100, 0 no effect, 100 complete control
[28] = Rate 250 g/ha, scale 0 to 100, 0 no effect, 100 complete control

Compound: CCC(C)c1ccn(C2CCN(c3ccc(Cl)c(OC)c3)C2=O)n1 (centres unmarked) [Compound 119]
- Ducksalad plant response rating ([1]; Rate 250 g/ha): 90
- Ducksalad plant response rating ([1]; Rate 500 g/ha): 100
- Plant response rating, Ducksalad ([1]; Rate 62 g/ha): 0
- Plant response rating, Ducksalad ([1]; Rate 125 g/ha): 20
- Rice plant response rating ([2]; Rate 250 g/ha): 50
- Rice plant response rating ([2]; Rate 500 g/ha): 50
- Plant response rating, Rice ([2]; Rate 62 g/ha): 20
- Plant response rating, Rice ([2]; Rate 125 g/ha): 40
- Flatsedge plant response rating ([3]; Rate 250 g/ha): 100
- Flatsedge plant response rating ([3]; Rate 500 g/ha): 100
- Plant response rating, Flatsedge ([3]; Rate 62 g/ha): 0
- Plant response rating, Flatsedge ([3]; Rate 125 g/ha): 100
- Barnyardgrass plant response rating ([4]; Rate 250 g/ha): 70
- Barnyardgrass plant response rating ([4]; Rate 500 g/ha): 80
- Plant response rating, Barnyardgrass ([4]; Rate 62 g/ha): 30
- Plant response rating, Barnyardgrass ([4]; Rate 125 g/ha): 70
- Plant response rating (0 to 100), Nightshade [5]: 100
- Plant response rating, Goosegrass [6, 24]: 100
- Plant response rating, Goosegrass [6, 25]: 100
- Plant response rating (0 to 100), Goosegrass [6, 26]: 100
- Plant response rating, Goosegrass [6, 27]: 100
- Plant response rating, Nutsedge [7, 24]: 20
- Plant response rating, Nutsedge [7, 25]: 0
- Plant response rating (0 to 100), Nutsedge [7, 26]: 30
- Plant response rating, Nutsedge [7, 27]: 30
- Plant response rating, Pigweed [8, 24]: 50
- Plant response rating, Pigweed [8, 25]: 50
- Plant response rating (0 to 100), Pigweed [8, 26]: 100
- Plant response rating, Pigweed [8, 27]: 90
- Plant response rating, Sunflower [9]: 40
- Plant response rating, Velvetleaf [10, 24]: 100
- Plant response rating, Velvetleaf [10, 25]: 60
- Plant response rating (0 to 100), Velvetleaf [10, 26]: 100
- Plant response rating, Velvetleaf [10, 27]: 100
- Plant response rating, Soybean [11, 24]: 80
- Plant response rating, Soybean [11, 25]: 60
- Plant response rating (0 to 100), Soybean [11, 26]: 100
- Plant response rating, Soybean [11, 27]: 100
- Plant response rating, Corn [12, 24]: 30
- Plant response rating, Corn [12, 25]: 30
- Plant response rating (0 to 100), Corn [12, 26]: 90
- Plant response rating, Corn [12, 27]: 60
- Plant response rating, Kochia [13, 24]: 100
- Plant response rating, Kochia [13, 25]: 100
- Plant response rating (0 to 100), Kochia [13, 26]: 100
- Plant response rating, Kochia [13, 27]: 100
- Plant response rating, Ragweed, Common [14, 24]: 100
- Plant response rating, Ragweed, Common [14, 25]: 100
- Plant response rating (0 to 100), Ragweed, Common [14, 26]: 100
- Plant response rating, Ragweed, Common [14, 27]: 100
- Plant response rating, Foxtail, Giant [15, 24]: 100
- Plant response rating, Foxtail, Giant [15, 25]: 50
- Plant response rating (0 to 100), Foxtail, Giant [15, 26]: 100
- Plant response rating, Foxtail, Giant [15, 27]: 90
- Plant response rating, Crabgrass [16, 24]: 100
- Plant response rating, Crabgrass [16, 25]: 100
- Plant response rating (0 to 100), Crabgrass [16, 26]: 100
- Plant response rating, Crabgrass [16, 27]: 100
- Plant response rating, Cupgrass, Woolly [17, 24]: 100
- Plant response rating, Cupgrass, Woolly [17, 25]: 100
- Plant response rating (0 to 100), Cupgrass, Woolly [17, 26]: 100
- Plant response rating, Cupgrass, Woolly [17, 27]: 100
- Plant response rating, Surinam grass [18, 24]: 100
- Plant response rating, Surinam grass [18, 25]: 100
- Plant response rating (0 to 100), Surinam grass [18, 26]: 100
- Plant response rating, Surinam grass [18, 27]: 100
- Plant response rating, Nightshade ([19]; Rate 62 g/ha, scale 0 to 100): 100
- Plant response rating, Nightshade [19, 24]: 100
- Plant response rating, Nightshade [19, 28]: 100
- Plant response rating, Bermudagrass [20, 24]: 100
- Plant response rating, Bermudagrass [20, 25]: 100
- Plant response rating (0 to 100 where 0 is no effect and 100 is complete control), Bermudagrass [20, 26]: 100
- Plant response rating, Bermudagrass [20, 27]: 100
- Plant response rating (0 to 100), Cocklebur ([21]; Rate 500 g/ha, visual evaluation after 12 to 14 days): 50
- Plant response rating, Cocklebur [21, 28]: 20
- Plant response rating, Morningglory [22, 24]: 90
- Plant response rating, Morningglory [22, 25]: 60
- Plant response rating (0 to 100), Morningglory [22, 26]: 100
- Plant response rating, Morningglory [22, 27]: 100
- Plant response rating, Johnsongrass [23, 24]: 100
- Plant response rating, Johnsongrass [23, 25]: 90
- Plant response rating (0 to 100), Johnsongrass [23, 26]: 100
- Plant response rating, Johnsongrass [23, 27]: 100
